Patent publication US10076511B2, “Bisamide derivative of dicarboxylic acid as an agent for stimulating tissue regeneration and recovery of diminished tissue function” (TREAMID GmbH, priority 2015, dated 2018)

Key:
male C57BL/6 mice [1] = experiment: Cachexia induced by Lewis lung carcinoma; format: in vivo, mouse; settings: Day 28; Treamid 10 mg/kg intragastrically from Day 15
Description: Cachexia developed in male C57Bl/6 mice when simulating hematogenously metastasizing Lewis lung carcinoma (LLC). Tumor cells were injected once subcutaneously into the mice at a concentration of 5×10^6 in 0.1 ml of physiological saline (Yu-Chou T., Samuel K. K., I-Lu L. et al. Preclinical Investigation of the Novel Histone Deacetylase Inhibitor AR-42 in the Treatment of Cancer-Induced Cachexia//JNCI J Natl Cancer Inst (2015) 107(12)).
The day of the injection of tumor cells was taken as Day 1 of the experiment. Treamid was administered at a dose of 10 mg/kg intragastrically once daily, every day from Day 15 to […]. The animals were weighed one day before the introduction of tumor cells (Day 0) and on Day 28 of the experiment. On Day 28, the animals were euthanized in a CO2 chamber, and blood was collected. The level of free testosterone was determined in the blood serum by enzyme immunoassay.

male Wistar rats [2] = experiment: Chronic abacterial prostatitis (CAP) model, prostate weight and morphometry; format: in vivo, rat
Description: This is manifested in a decrease in the severity of the morphological changes typical in these diseases. CAP was simulated by suturing the ventral lobe of the gland with a silk thread, and BPH was simulated by the administration of Sulpiride. The reference drug was Prostamol Uno.
Treamid were administered intragastrically to animals with CAP at a dose of 0.5 mg/kg for 15 days.
Experiments were performed on 40 male Wistar rats (3 months of age). To simulate chronic abacterial prostatitis, the ventral lobe of the prostate was sutured with a silk thread (under anesthesia). The model of benign prostatic hyperplasia (BPH) was simulated in rats by inducing hyperprolactinaemia, for which male rats were intraperitoneally injected with Sulpiride at a dose of 40 mg/kg every day for 2 months (Eglonil, Sanofi Winthrop Industry, France).
One month after the surgery, the animals of the experimental group were intraperitoneally administered Treamid at a dose of 0.5 mg/kg once daily for 15 days. At the end of the administration course, the animals were weighed and euthanized in a CO2 chamber. The ventral lobe of the gland was then dissected, weighed, and its volume was measured, followed by the calculation of a weight coefficient, and subjected to morphological analysis. For this purpose, the prostate was fixed in formalin and poured into paraffin. Paraffin sections of a thickness of 5 μm were stained with hematoxylin-eosin according to Van Gieson on the connective tissue, to calculate the relative area of the epithelium. Further, the severity of atrophic processes and developing sclerosis was qualitatively assessed. The assessment was carried out on standard area of the gland section by using a computer graphic analysis (micrographs of 10 serial visual fields performed by an AxioCam Erc5s camera mounted on an AxioLab A1 microscope (×10 lens, ×10 eyepiece), with an image transfer software of “AxioVision LE”, Carl Zeiss). The area occupied by secretory sites, collagen fibers of connective tissue septa was determined. The effectiveness of the drug was estimated by the following criteria: lower intensity of morphological symptoms of chronic abacterial prostatitis (atrophy and sclerosis): the area occupied by secretory sections, collagen fibers of connective tissue septa.

male Wistar rats [3] = experiment: Pair-test of sexual behavior, seasonal suppression of copulatory activity; format: in vivo, rat
Description: Seasonal suppression of reproductive activity was simulated by carrying out the experiment in the winter period (end of December). As a background group, intact animals (3 months of age) were tested in June.
The experiments were carried out on 27 male Wistar rats of reproductive age (3 months). Treamid at a dose of 5 mg/kg and reference drug Sildenafil (at a dose of 3 mg/kg) were administered intragastrically […], once daily for 15 days. The sexual activity was estimated by the pair-test of sexual behavior. The test was carried out twice: before administration and one hour after the last administration of Treamid. The rats of the control groups receiving the solvent were tested at the same time as the animals of the experimental groups.
The experiment also comprised the use of female rats in the estrus stage caused by a preliminary 4-fold injection of the Synestrel. The effectiveness of Treamid was estimated by the following indices: latency until the first mating attempt (LFM), the number of mating attempts (MN), and the number of ejaculations (EN). The obtained data were compared with those of the same animals before the administration of the tested compound and with the data of the control group (the second test).

male C57BL/6 mice [4] = experiment: Fertility of male mice on a metabolic syndrome model; format: in vivo, mouse
Description: Metabolic disorders were simulated as follows: on Day 2 after birth, male C57Bl/6 mice were injected with streptozotocin at a dose of 200 mg/kg, once, subcutaneously in the withers area, and the volume of the injected solution was 30 μl. From week 4 after birth, the animals were transferred to a high-fat diet. For this purpose, the used feed was enriched with heavy saturated fats (30% fat) (Siff EF R/M with 30% Fat Cat No. E15116-34, Germany). The animals were held on the high-fat diet for 42 days (from Day 28 to Day 70 of the study). Treamid was administered at a dose of 10 mg/kg intragastrically once daily, every day from Day 49 to Day 80 of the experiment. The control animals received the equivalent volume of a solvent, instead of the test compound.
The fertility of the males was estimated as follows: intact females were placed to the males of the experimental groups in a ratio of 1:2 for a period of from Day 70 to Day 80 of the study. During this period, the males of the experimental group continued to be administered intragastrically Treamid once daily at a dose of 10 mg/kg.
At the end of the mating period, on Day 80 of the study, the males were euthanized in a CO2 chamber. The blood of the animals was taken and analyzed for serum levels of free testosterone by enzyme immunoassay. Euthanasia was performed in the morning hours from 9:30 to 11:00.
The females were sacrificed in the CO2 chamber on Day 18 of pregnancy. The fetuses in the uterus were examined. The fertility index (FI) was calculated to assess fertility: FI=number of fertilized females/number of females placed with males×100%.

[5] = Treamid 0.5 mg/kg 15 days, Prostamol Uno 50 mg/kg
[6] = anterior part of the prostate gland, Treamid 0.5 mg/kg, Prostamol Uno 50 mg/kg
[7] = first test, before administration, winter period
[8] = second test, one hour after last administration, Treamid 5.0 mg/kg, Sildenafil 3 mg/kg intragastrically, 15 days

## O=C(CCCC(=O)NCCc1ncc[nH]1)NCCc1ncc[nH]1 [Treamid]
Male C57BL/6 mice [1]
  Body weight, including the subtraction of the tumor weight: 23.8 ± 0.57 g
  The free testosterone level (pg/ml) in the blood serum: 3.2 ± 0.3*• pg/ml
Male Wistar rats [2]; Treamid 0.5 mg/kg
  increase in the area of the acinar epithelium: 22%
Male Wistar rats [2]; [5]
  Volume of the anterior lobe of the prostate gland, cm^3: 0.90 ± 0.20 cm^3
  Weight coefficient of the anterior lobe of the prostate gland: 1.97 ± 0.47 mg/g
  Weight of the anterior lobe of the prostate gland: 976.00 ± 226.62 mg
Male Wistar rats [2]; [6]
  Area of collagen fibers: 2.64 ± 0.12 %
  Area of the acinar epithelium: 26.33 ± 2.63%
Male Wistar rats [3]; Treamid 5 mg/kg
  decrease of latency until the first mount after administration compared to before: 1.8 times
Male Wistar rats [3]; Treamid 5 mg/kg, statistically insignificant
  increase of total number of mating attempts: 1.8 times
Male Wistar rats [3]; [7]
  LFM: 462.00 ± 117.81 s
  the number of ejaculations, %: 0%
  the number of mounts, abs.: 3.67 ± 1.34 abs.
Male Wistar rats [3]; [8]
  LFM, sec: 251.33 ± 103.86♦ sec
  the number of mounts, abs.: 6.56 ± 1.68 abs.
Male C57BL/6 mice [4]; 10 mg/kg, Day 80
  increase of free testosterone in the blood serum in comparison with intact animals: 16%
  increase of free testosterone in the blood serum in comparison with the pathological control: 2 times
Male C57BL/6 mice [4]; Day 80, Treamid 10 mg/kg intragastrically Day 49-80
  Free testosterone in the blood serum (pg/ml): 3.46 ± 1.87*• pg/ml
Male C57BL/6 mice [4]; Treamid 10 mg/kg Day 49-80
  fertility index relative to untreated metabolic disorders (pathological control): 1.8 times
Male C57BL/6 mice [4]; mating Day 70-80, Treamid 10 mg/kg Day 49-80
  Fertility index, %: 55*• %
